Patent US4529600A, “Pentadeuterioretinoids” (SRI International, priority 1982, dated 1985)

Tests used:
[1] = test system: keratinization in hamster tracheal organ culture; experiment: tracheal organ culture assay: reversal of keratinization in hamster tracheal organ culture; type: cell-based; settings: 10 days in culture
Protocol: (§1) The ODC assay measures a compound's effect on the prevention of the induction of ODC. The tracheal organ culture assay measures a compound's ability to reverse keratinization. For comparison purposes retinoic acid was also tested by these assays.
The tracheal organ culture assay is carried out as follows. Tracheas are taken from hamsters that are in very early stages of vitamin A deficiency and placed in organ culture. At the time of culture, the animals are still gaining weight; the tracheal epithelium is generally low columnar or cuboidal, with only occasional patches of squamous metaplasia. Each trachea is opened from the larynx to the carina along the membranous dorsal wall and cultured in a serum-free medium (CMRL-1066; with crystalline bovine insulin, 0.1 μg/ml; hydrocortisone hemisuccinate, 0.1 μg/ml; glutamine, 2 mM; penicillin, 100 units/ml; and streptomycin,100 μg/ml, added). Cultures are gassed with 50% oxygen, 45% nitrogen, and 5% CO2. The culture dishes are rocked at 35.5-36.0 degrees to allow the tracheas contact with both gas and medium. All tracheas are grown in medium containing no retinoid for the first 3 days. At the end of 3 days, some tracheas are harvested; almost all of these tracheas have significant squamous metaplasia, and approximately 60% have keratinized lesions. The remaining tracheas are then divided into different groups which are treated with either: (1) retinoid dissolved in dimethylsulfoxide (final concentration of DMSO in culture medium is never greater than 0.1%) or (2) an equivalent amount of DMSO alone. Culture medium is changed three times a week, and all of the remaining tracheas are harvested at the end of 10 days in culture. Tracheas are fixed in 10% buffered formalin and embedded in paraffin. Cross sections of five micrometers are made through the mid-portion, stained with hematoxylin and eosin, and then scored with a microscope for the presence of keratin and keratohyaline granules, both of which are found in approximately 90% of control cultures that received no retinoid for the entire 10 day culture period.

ornithine decarboxylase = experiment: ODC assay: inhibition of induction of ornithine decarboxylase by 12-O-tetradecanoylphorbol-13-acetate in mouse skin; type: in vivo, mouse (female Charles River CD-1); settings: topical, 1 hour before TPA (17 nmol)
Protocol: as §1
The ODC assay is carried out as follows. Female Charles River CD-1 mice from Charles River Breeding Laboratories, Wilmington, Mass., are used (age 7 to 9 weeks). The dorsal hair of the mice is shaved 1 to 2 days before testing, and only mice showing no hair regrowth are used. A single dose of 12-O-tetradecanoylphorbol-13-acetate (TPA) (10.5 μg, 17 nmol) in 0.2 mL of acetone is applied topically to the back of each mouse. The test compound, at one of three dose levels (1.7, 17, and 170 nmol), dissolved in 0.2 mL of acetone is applied 1 hour before the TPA treatment to the test groups; the control group is treated with acetone alone. The mice are killed by cervical dislocation five hours after TPA treatment. Determinations are done in triplicate.
The epidermis is obtained from the sacrificed animals. To obtain sufficient material, the dorsal skins from 2 to b 3 mice in each treatment group are pooled. The depilatory agent Nudit® (Helena Rubinstein, New York) is applied to the shaved area of the skin; after 5 minutes, it is washed off thoroughly with cold tap water. […]
The supernatant fraction remaining after centrifugation of the homogenate at 10,000×g for 30 seconds at 0° C. is used for the enzyme assay. Enzyme activity is determined using the microassay for ODC as described by Verma and Boutwell to measure the release of ^14 CO2 from DL-[1-^14 C]-ornithine (58 mCi/mmol) after incubation with the 10,000×g supernatant. […]
Radioactivity is measured using a toluene-based scintillant (4 g of PPO and 50 mg of POPOP/L of toluene) in a Beckman LS-250 liquid scintillation counter. Enzyme activity is determined in triplicate and expressed as nanomoles of CO2 released in 30 minutes per milligram of protein. […] The protein concentrations of the epidermal extracts are determined by the Lowry procedure, using bovine serum albumin as the standard.

[2H]C([2H])([2H])C1=C(/C=C/C(C)=C/C=C/C(C)=C/C(=O)O)C(C)(C)CCC1([2H])[2H] [(E)-retinoic acid-4,4,18,18,18-d5]
Reversal of Keratinization, Active Cultures (%) ([1]; 10^-9 M): 100%
Reversal of Keratinization, Active/Total Cultures ([1]; 10^-9 M): 8/8
Reversal of Keratinization, Active Cultures (%) ([1]; 10^-10 M): 86%
Reversal of Keratinization, Active/Total Cultures ([1]; 10^-10 M): 6/7
Inhibition of Induction of Ornithine Decarboxylase by 12-O-Tetradecanoylphorbol-13-acetate in Mouse Skin, % Inhibition of Control (ornithine decarboxylase; dose 1.7 nmol): 90%
Inhibition of Induction of Ornithine Decarboxylase by 12-O-Tetradecanoylphorbol-13-acetate in Mouse Skin, % Inhibition of Control (ornithine decarboxylase; dose 17 nmol): 90%

CC1=C(/C=C/C(C)=C/C=C/C(C)=C/C(=O)O)C(C)(C)CCC1 [(E)-retinoic acid]
Reversal of Keratinization, Active Cultures (%) ([1]; 10^-8 M): 100%
Reversal of Keratinization, Active/Total Cultures ([1]; 10^-8 M): 236/236
Reversal of Keratinization, Active Cultures (%) ([1]; 10^-9 M): 88%
Reversal of Keratinization, Active/Total Cultures ([1]; 10^-9 M): 419/474
Reversal of Keratinization, Active Cultures (%) ([1]; 10^-10 M): 52%
Reversal of Keratinization, Active/Total Cultures ([1]; 10^-10 M): 134/256
Inhibition of Induction of Ornithine Decarboxylase by 12-O-Tetradecanoylphorbol-13-acetate in Mouse Skin, % Inhibition of Control (ornithine decarboxylase; dose 1.7 nmol): 87-91%
